Measurements taken from patent publication US20250214968A1, “Novel Salt of GLP-1 Receptor Agonist Compound, Preparation Method Thereof and Pharmaceutical Composition Comprising Thereof” (Ildong Pharmaceutical Co., Ltd., priority 2022, published 2025).
In brackets after ≈: the same amount, converted by molar mass. Counter-ions that a name gives are not always drawn.

Tests used:
Format in all cases: physicochemical
[1] = Hygroscopicity test, European Pharmacopoeia conditions, 25° C. and 80% RH; conditions: stored 24 hours at 25° C., 80% RH (EP conditions)
Method: Under the hygroscopicity test conditions of the European Pharmacopoeia (EP), the tromethamine salt prepared in Example 3 and the free base prepared in Comparative Example 1 were stored for 24 hours at a temperature of 25° C. and a relative humidity of 80%, and then the mass change of the sample due to moisture sorption was measured.

[2] = Solubility in water and bio-relevant media; conditions: for Final pH: after 24 hours stirring; for solubility at 24 h: thermodynamic from solid, room temperature, 2 mg/mL loading
Method: Solubility in water and bio-relevant media, i.e., stimulated gastric fluid (SGF), fasted state simulated intestinal fluid (FaSSIF), and fed state simulated intestinal fluid (FeSSIF) of the free base and the tromethamine salt of (S)-2-((4-(6-((5-cyanopyridin-2-yl)methoxy)pyridin-2-yl)piperazin-1-yl)methyl)-1-(oxetan-2-ylmethyl)-1H-benzo[d]imidazol-6-carboxylic acid was confirmed.
Buffers for the bio-relevant media were prepared as follows.
Water: Laboratory Milli-Q purified water.
SGF (Stimulated Gastric Fluid): 2.0 g of sodium chloride and 7 mL of hydrochloric acid dissolved in 1000 mL of water was used.
FaSSIF (Fasted State Simulated Intestinal Fluid): A commercial product purchased from Bio-Relevant Company and manufactured according to instructions was used.
FeSSIF (Fed State Simulated Intestinal Fluid): A commercial product purchased from Bio-Relevant Company and prepared according to instructions was used.
For the experiment, about 2 mg of compound (2 mg as free base form) was weighed into each glass vial and then 1 mL of medium was added (final concentration of 2 mg/mL). Then, the sample was continuously stirred for 24 hours in a magnetic stirrer at a speed of […] at room temperature. Then, the pH was measured and the mixture was filtered using MultiScreen®HTS-HV 96-well plate (Merck; 0.45 μm hydrophilic low protein binding Durapore® membrane). Solubility was analyzed using HPLC.

[3] = Thermogravimetric (TGA) analysis; conditions: TGA 20° C. to 350° C., 10° C./min, nitrogen
Method: Thermogravimetric (TGA) analysis was performed on the tromethamine salt prepared in Example 3, the free base prepared in Comparative Example 1, the L-arginine salt prepared in Comparative Example 2, the meglumine salt prepared in Comparative Example 3, and the potassium salt prepared in Comparative Example 4. Thermogravimetric analysis was performed from 20° C. to 350° C. at a heating rate of 10° C./min under nitrogen conditions using TGA Q50 manufactured by TA Instruments, Inc. The weight loss at about 170° C. or less for each salt was measured, and results thereof are shown in FIG. 2 (tromethamine salt), FIG. 3 (free base), FIG. 6 (L-arginine salt), FIG. 9 (meglumine salt), and 12 (potassium salt), and summarized in Table 4 below.

[4] = Drug stability evaluation under stress condition (80° C., open)
Method: The free base and the tromethamine salt of (S)-2-((4-(6-((5-cyanopyridin-2-yl)methoxy)pyridin-2-yl)piperazin-1-yl)methyl)-1-(oxetan-2-ylmethyl)-1H-benzo[d]imidazol-6-carboxylic acid were weighed into each vial and stored under stress conditions to investigate stability.
The stress conditions are as follows: • high temperature open room condition: 80° C.;
Samples were analyzed by XRPD and HPLC at the onset (Day 0) and week 1 of storage.

[5] = Hygroscopicity test by DVS, 25° C. and 90% RH; conditions: moisture sorption
Method: Samples in amounts of about 5 to 25 mg were tested for moisture sorption/desorption profiles at 25° C. under a 0% to 90% relative humidity (RH) cycle according to the pa-rameters in Table 2 below using DVS Intrinsic 1 manufactured by Surface Measurement System Ltd.
Hygroscopicity was measured for the tromethamine salt prepared in Example 3, the L-arginine salt prepared in Comparative Example 2, the meglumine salt prepared in Comparative Example 3, and the potassium salt prepared in Comparative Example 4. Results thereof are shown in FIGS. 14 to 17, respectively, and the results of the weight percent gain according to moisture sorption are shown in Table 6 below.

[6] = XRPD analysis of crystal form under various relative humidity conditions; conditions: 20° C.
Method: The X-ray powder diffraction (XRPD) pattern was measured using DYY884-AERIS-300 manufactured by PANalytical company, and analyzed with a step size of about 0.02° over the range of about 2° to 45° in the […].
The XRPD analysis of the crystalline form 1 of the tromethamine salt of (S)-2-((4-(6-((5-cyanopyridin-2-yl)methoxy)pyridin-2-yl)piperazin-1-yl)methyl)-1-(oxetan-2-ylmethyl)-1H-benzo[d]imidazol-6-carboxylic acid was performed under the conditions of varying relative humidity from 15% RH to 90% RH at 20° C., and the changes in the crystalline form according to the relative humidity were confirmed.

[7] = simulated gastric fluid, SGF (pH 2.0)
[8] = 80° C. (Week 1), high temperature open

Row | Weight percent gain (%) [1] [%] | Final pH ([2]; FaSSIF (pH 6.5)) | Final pH ([2]; FeSSIF (pH 5.8)) | Final pH ([2]; SGF (pH 2.0)) | Final pH ([2]; Water) | solubility at 24 h [2, 7] [µg/mL] | solubility at 24 h ([2]; FaSSIF (pH 6.5)) [µg/mL] | solubility at 24 h ([2]; FeSSIF (pH 5.8)) [µg/mL] | solubility at 24 h ([2]; Water) [µg/mL] | Weight loss (%) at about 170° C. or less [3] [%] | Chemical stability by HPLC purity % [4, 8] [%] | Chemical stability by HPLC purity % ([4]; Onset (Day 0)) [%] | Weight percent gain (%) [5] [%] | Compound | also measured
1 | 2.7 | 6.49 | 5.70 | 1.74 | 6.64 | 850 (≈ 1580 µM) | 160 (≈ 297 µM) | 63 (≈ 117 µM) | 106 (≈ 196 µM) | 3.323 | 96.70 | 97.84 | – | N#Cc1ccc(COc2cccc(N3CCN(Cc4nc5ccc(C(=O)O)cc5n4C[C@@H]4CCO4)CC3)n2)nc1 [Comparative Example 1, (S)-2-((4-(6-((5-cyanopyridin-2-yl)methoxy)pyridin-2-yl)piperazin-1-yl)methyl)-1-(oxetan-2-ylmethyl)-1H-benzo[d]imidazol-6-carboxylic acid] | –
2 | 0.22 | 6.50 | 5.85 | 1.90 | 7.21 | 710 | > 2000 | 336 | > 2000 | 0.1207 | 97.32 | 97.99 | 1.44 | N#Cc1ccc(COc2cccc(N3CCN(Cc4nc5ccc(C(=O)O)cc5n4C[C@@H]4CCO4)CC3)n2)nc1 [Example 3, tromethamine salt of (S)-2-((4-(6-((5-cyanopyridin-2-yl)methoxy)pyridin-2-yl)piperazin-1-yl)methyl)-1-(oxetan-2-ylmethyl)-1H-benzo[d]imidazol-6-carboxylic acid] | Weight percent gain (%) ([5]; listed as tromethamine salt): about 1.44%; Crystalline Form ([6]; 15% RH, during desorption): Form 1; Crystalline Form ([6]; 15% RH, increasing humidity): 1; Crystalline Form ([6]; 20% RH, increasing humidity): 1; Crystalline Form ([6]; 25% RH, increasing humidity): 1; Crystalline Form ([6]; 30% RH, during desorption): Form 1; Crystalline Form ([6]; 30% RH, increasing humidity): 1; Crystalline Form ([6]; 35% RH, increasing humidity): 1; Crystalline Form ([6]; 40% RH, during desorption): Form 1; Crystalline Form ([6]; 40% RH, increasing humidity): 1; Crystalline Form ([6]; 45% RH, increasing humidity): 1; Crystalline Form ([6]; 50% RH, during desorption): intermediate; Crystalline Form ([6]; 50% RH, increasing humidity): 1; Crystalline Form ([6]; 55% RH, increasing humidity): 1A; Crystalline Form ([6]; 60% RH, increasing humidity): 1A; change in the XRPD pattern ([4]; harsh conditions, 80° C., week 1): did not show any change in the XRPD pattern; purity change rate ([4]; harsh conditions, 80° C., week 1 vs day 0): less than 1%

Further lines, the compound ahead of its results:

Row | Compound | Weight percent gain (%) [1] [%] | Final pH ([2]; FaSSIF (pH 6.5)) | Final pH ([2]; FeSSIF (pH 5.8)) | Final pH ([2]; SGF (pH 2.0)) | Final pH ([2]; Water) | solubility at 24 h [2, 7] [µg/mL] | solubility at 24 h ([2]; FaSSIF (pH 6.5)) [µg/mL] | solubility at 24 h ([2]; FeSSIF (pH 5.8)) [µg/mL] | solubility at 24 h ([2]; Water) [µg/mL] | Weight loss (%) at about 170° C. or less [3] [%] | Chemical stability by HPLC purity % [4, 8] [%] | Chemical stability by HPLC purity % ([4]; Onset (Day 0)) [%] | Weight percent gain (%) [5] [%] | also measured
3 | N#Cc1ccc(COc2cccc(N3CCN(Cc4nc5ccc(C(=O)O)cc5n4C[C@@H]4CCO4)CC3)n2)nc1.N=C(N)NCCC[C@H](N)C(=O)O [Comparative Example 2, L-arginine salt of (S)-2-((4-(6-((5-cyanopyridin-2-yl)methoxy)pyridin-2-yl)piperazin-1-yl)methyl)-1-(oxetan-2-ylmethyl)-1H-benzo[d]imidazol-6-carboxylic acid] | – | – | – | – | – | – | – | – | – | 7.368 | – | – | 6.84 | –
4 | CNC[C@H](O)[C@@H](O)[C@H](O)[C@H](O)CO.N#Cc1ccc(COc2cccc(N3CCN(Cc4nc5ccc(C(=O)O)cc5n4C[C@@H]4CCO4)CC3)n2)nc1 [Comparative Example 3, meglumine salt of (S)-2-((4-(6-((5-cyanopyridin-2-yl)methoxy)pyridin-2-yl)piperazin-1-yl)methyl)-1-(oxetan-2-ylmethyl)-1H-benzo[d]imidazol-6-carboxylic acid] | – | – | – | – | – | – | – | – | – | 2.8132 | – | – | 17.77 | –
5 | N#Cc1ccc(COc2cccc(N3CCN(Cc4nc5ccc(C(=O)[O-])cc5n4C[C@@H]4CCO4)CC3)n2)nc1.[K+] [Comparative Example 4, potassium salt of (S)-2-((4-(6-((5-cyanopyridin-2-yl)methoxy)pyridin-2-yl)piperazin-1-yl)methyl)-1-(oxetan-2-ylmethyl)-1H-benzo[d]imidazol-6-carboxylic acid] | – | – | – | – | – | – | – | – | – | 4.284 | – | – | 5.97 | –
